Measurements published in PubChem BioAssay AID1259407 (Chemical Carcinogenesis Research Information System (CCRIS), 2018).
The source made the active and inactive calls. No rule for the calls is given here.

System: CCRIS mutagenicity, Ames/micronucleus/aberration tests
Test: CCRIS mutagenicity studies

C=Cc1ccccc1Cl
mutagenic call (Test System: AMES SALMONELLA TYPHIMURIUM, Strain/Indicator: TA97, Metabolic Activation: HAMSTER, LIVER, S-9, AROCLOR 1254 (10 OR 30%), Method: PREINCUBATION): inactive; negative
mutagenic call (Test System: AMES SALMONELLA TYPHIMURIUM, Strain/Indicator: TA97, Metabolic Activation: NONE, Method: PREINCUBATION): inactive; negative
mutagenic call (Test System: AMES SALMONELLA TYPHIMURIUM, Strain/Indicator: TA97, Metabolic Activation: RAT, LIVER, S-9, AROCLOR 1254 (10 OR 30%), Method: PREINCUBATION): inactive; negative
mutagenic call (Test System: AMES SALMONELLA TYPHIMURIUM, Strain/Indicator: TA98, Metabolic Activation: HAMSTER, LIVER, S-9, AROCLOR 1254 (10 OR 30%), Method: PREINCUBATION): inactive; negative
mutagenic call (Test System: AMES SALMONELLA TYPHIMURIUM, Strain/Indicator: TA98, Metabolic Activation: NONE, Method: PREINCUBATION): inactive; negative
mutagenic call (Test System: AMES SALMONELLA TYPHIMURIUM, Strain/Indicator: TA98, Metabolic Activation: RAT, LIVER, S-9, AROCLOR 1254 (10 OR 30%), Method: PREINCUBATION): inactive; negative
mutagenic call (Test System: AMES SALMONELLA TYPHIMURIUM, Strain/Indicator: TA100, Metabolic Activation: HAMSTER, LIVER, S-9, AROCLOR 1254 (10 OR 30%), Method: PREINCUBATION): inactive; negative
mutagenic call (Test System: AMES SALMONELLA TYPHIMURIUM, Strain/Indicator: TA100, Metabolic Activation: NONE, Method: PREINCUBATION): inactive; negative
mutagenic call (Test System: AMES SALMONELLA TYPHIMURIUM, Strain/Indicator: TA100, Metabolic Activation: RAT, LIVER, S-9, AROCLOR 1254 (10 OR 30%), Method: PREINCUBATION): inactive; negative
mutagenic call (Test System: AMES SALMONELLA TYPHIMURIUM, Strain/Indicator: TA1535, Metabolic Activation: HAMSTER, LIVER, S-9, AROCLOR 1254 (10 OR 30%), Method: PREINCUBATION): inactive; negative
mutagenic call (Test System: AMES SALMONELLA TYPHIMURIUM, Strain/Indicator: TA1535, Metabolic Activation: NONE, Method: PREINCUBATION): inactive; negative
mutagenic call (Test System: AMES SALMONELLA TYPHIMURIUM, Strain/Indicator: TA1535, Metabolic Activation: RAT, LIVER, S-9, AROCLOR 1254 (10 OR 30%), Method: PREINCUBATION): inactive; negative

CC(=O)OCc1c2ccccc2c2ccc3cccc4ccc1c2c43
mutagenic call (Test System: AMES SALMONELLA TYPHIMURIUM, Strain/Indicator: TA98, Metabolic Activation: NONE, Method: STANDARD PLATE): active; positive
mutagenic call (Test System: AMES SALMONELLA TYPHIMURIUM, Strain/Indicator: TA100, Metabolic Activation: NONE, Method: STANDARD PLATE): active; positive

COc1cc(O)c2c(=O)c3c(OC)cc4c(c3oc2c1OC)C1CCOC1O4 (stereo unspecified)
mutagenic call (Test System: AMES SALMONELLA TYPHIMURIUM, Strain/Indicator: TA98, Metabolic Activation: RAT, LIVER, S-9, PHENOBARBITAL, Method: STANDARD PLATE): inactive; negative
mutagenic call (Test System: AMES SALMONELLA TYPHIMURIUM, Strain/Indicator: TA100, Metabolic Activation: RAT, LIVER, S-9, PHENOBARBITAL, Method: STANDARD PLATE): inactive; negative

CC(C)c1ccccc1
mutagenic call (End Point: In vivo micronucleus, Test System: Polychromatic erythrocytes in bone marrow, Species: Rat, Strain/Sex: F344/N / Male, Route: Intraperitoneal): active; positive (both trials)
mutagenic call (End Point: In vivo micronucleus, Test System: Polychromatic erythrocytes in peripheral blood, Species: Mouse, Strain/Sex: B6C3F1/ Female, Route: Inhalation): inactive; negative
mutagenic call (End Point: In vivo micronucleus, Test System: Polychromatic erythrocytes in peripheral blood, Species: Mouse, Strain/Sex: B6C3F1/ Male, Route: Inhalation): inactive; negative
mutagenic call (Test System: Ames Salmonella typhimurium, Strain/Indicator: TA97, Metabolic Activation: Hamster, Liver, S-9, Aroclor 1254 (10%), Method: Preincubation): inactive; negative
mutagenic call (Test System: Ames Salmonella typhimurium, Strain/Indicator: TA97, Metabolic Activation: Hamster, Liver, S-9, Aroclor 1254 (30%), Method: Preincubation): inactive; negative
mutagenic call (Test System: Ames Salmonella typhimurium, Strain/Indicator: TA97, Metabolic Activation: None, Method: Preincubation): inactive; negative
mutagenic call (Test System: Ames Salmonella typhimurium, Strain/Indicator: TA97, Metabolic Activation: Rat, Liver, S-9, Aroclor 1254 (10%), Method: Preincubation): inactive; negative
mutagenic call (Test System: Ames Salmonella typhimurium, Strain/Indicator: TA97, Metabolic Activation: Rat, Liver, S-9, Aroclor 1254 (30%), Method: Preincubation): inactive; negative
mutagenic call (Test System: Ames Salmonella typhimurium, Strain/Indicator: TA98, Metabolic Activation: Hamster, Liver, S-9, Aroclor 1254 (10%), Method: Preincubation): inactive; negative
mutagenic call (Test System: Ames Salmonella typhimurium, Strain/Indicator: TA98, Metabolic Activation: Hamster, Liver, S-9, Aroclor 1254 (30%), Method: Preincubation): inactive; negative
mutagenic call (Test System: Ames Salmonella typhimurium, Strain/Indicator: TA98, Metabolic Activation: None, Method: Preincubation): inactive; negative
mutagenic call (Test System: Ames Salmonella typhimurium, Strain/Indicator: TA98, Metabolic Activation: Rat, Liver, S-9, Aroclor 1254 (10%), Method: Preincubation): inactive; negative
mutagenic call (Test System: Ames Salmonella typhimurium, Strain/Indicator: TA98, Metabolic Activation: Rat, Liver, S-9, Aroclor 1254 (30%), Method: Preincubation): inactive; negative
mutagenic call (Test System: Ames Salmonella typhimurium, Strain/Indicator: TA100, Metabolic Activation: Hamster, Liver, S-9, Aroclor 1254 (10%), Method: Preincubation): inactive; negative
mutagenic call (Test System: Ames Salmonella typhimurium, Strain/Indicator: TA100, Metabolic Activation: Hamster, Liver, S-9, Aroclor 1254 (30%), Method: Preincubation): inactive; negative
mutagenic call (Test System: Ames Salmonella typhimurium, Strain/Indicator: TA100, Metabolic Activation: None, Method: Preincubation): inactive; negative
mutagenic call (Test System: Ames Salmonella typhimurium, Strain/Indicator: TA100, Metabolic Activation: Rat, Liver, S-9, Aroclor 1254 (10%), Method: Preincubation): inactive; negative
mutagenic call (Test System: Ames Salmonella typhimurium, Strain/Indicator: TA100, Metabolic Activation: Rat, Liver, S-9, Aroclor 1254 (30%), Method: Preincubation): inactive; negative
mutagenic call (Test System: Ames Salmonella typhimurium, Strain/Indicator: TA1535, Metabolic Activation: Hamster, Liver, S-9, Aroclor 1254 (10%), Method: Preincubation): inactive; negative
mutagenic call (Test System: Ames Salmonella typhimurium, Strain/Indicator: TA1535, Metabolic Activation: Hamster, Liver, S-9, Aroclor 1254 (30%), Method: Preincubation): inactive; negative
mutagenic call (Test System: Ames Salmonella typhimurium, Strain/Indicator: TA1535, Metabolic Activation: None, Method: Preincubation): inactive; negative
mutagenic call (Test System: Ames Salmonella typhimurium, Strain/Indicator: TA1535, Metabolic Activation: Rat, Liver, S-9, Aroclor 1254 (10%), Method: Preincubation): inactive; negative
mutagenic call (Test System: Ames Salmonella typhimurium, Strain/Indicator: TA1535, Metabolic Activation: Rat, Liver, S-9, Aroclor 1254 (30%), Method: Preincubation): inactive; negative

CCCOc1cc2c(c3ccc4ccccc4c13)CCC2=O
mutagenic call (Test System: AMES SALMONELLA TYPHIMURIUM, Strain/Indicator: TA100, Metabolic Activation: RAT, LIVER, S-9, AROCLOR 1254, Method: STANDARD PLATE): inactive; negative

CC(=O)Oc1cccc2cccnc12
mutagenic call (Test System: AMES SALMONELLA TYPHIMURIUM, Strain/Indicator: TA100, Metabolic Activation: S-9, Method: PREINCUBATION): inactive; negative
